# Measured values: patent US9643953B2, “Substituted benzylpyrazoles” (Bayer Intellectual Property GmbH, priority 2011, dated 2017)
# Read-outs that look alike come from different tables or passages of the source.
# Tests used:
# [1] = target: T1, catalytic domain of human Bub1 (amino acids 704-1085) (Homo sapiens, UniProt O43683); assay: Bub1 kinase assay (TR-FRET); type: biochemical; conditions: ATP 10 μM, peptide substrate 1 μM, 60 min at 22° C.
# T1 construct: catalytic domain of human Bub1 (amino acids 704-1085); His6 (N); made in house; host or cells: Hi5 insect cells
# Protocol: To this end, 100-fold concentrated compound solutions (in DMSO) were previously prepared by serial dilution (1:3.4) of 2 mM stocks in a clear low volume 384-well source microtiter plate (Greiner Bio-One, Frickenhausen, Germany), from which 50 nl of compounds were transferred into a black low volume test microtiter plate from the same supplier. […] The resulting mixture (5 μl final volume) was incubated at 22° C. during 60 min., and the reaction was stopped by the addition of 5 μl of an aqueous EDTA-solution (50 mM EDTA, in 100 mM HEPES pH 7.5 and 0.2% (w/v) bovine serum albumin) which also contained the TR-FRET detection reagents (0.2 μM streptavidin-XL665 [Cisbio Bioassays, Codolet, France] and 1 nM anti-phosho-Serine antibody [Merck Millipore, cat. #35-001] and 0.4 nM LANCE EU-W1024 labeled anti-mouse IgG antibody [Perkin-Elmer, product no. AD0077, alternatively a Terbium-cryptate-labeled anti-mouse IgG antibody from Cisbio Bioassays can be used]). The stopped reaction mixture was further incubated 1 h at 22° C. in order to allow the formation of complexes between peptides and detection reagents. Subsequently, the amount of product was evaluated by measurement of the resonance energy transfer from the Eu-chelate-antibody complex recognizing the Phosphoserine residue to the streptavidin-XL665 bound to the biotin moiety of the peptide. […] IC50 values were calculated by fitting the normalized inhibition data to a 4-parameter logistic equation (Minimum, Maximum, IC50, Hill; Y=Max+(Min−Max)/(1+(X/IC50)Hill)).
# [2] = system: HeLa cell line; assay: Proliferation assay (HeLa cell line);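 also: crystal violet staining of cell number, absorbance read at 595 nm, compounds tested at 0.001–10 µM, zero-point plate taken as 0% and untreated cells as 100%, four-parameter fit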
# Protocol: Cultivated tumor cells (cells were ordered from ATCC, except HeLa-MaTu and HeLa-MaTu-ADR, which were ordered from EPO-GmbH, Berlin) were plated at a density of 1000 to 5000 cells/well, depending on the growth rate of the respective cell line, in a 96-well multititer plate in 200 μL of their respective growth medium supplemented 10% fetal calf serum. After 24 hours, the cells of one plate (zero-point plate) were stained with crystal violet (see below), while the medium of the other plates was replaced by fresh culture medium (200 μl), to which the test substances were added in various concentrations (0 μM, as well as in the range of 0.001-10 μM; the final concentration of the solvent dimethyl sulfoxide was 0.5%). The cells were incubated for 4 days in the presence of test substances. Cell proliferation was determined by staining the cells with crystal violet: the cells were fixed by adding 20 μl/measuring point of an 11% glutaric aldehyde solution for 15 minutes at room temperature. After three washing cycles of the fixed cells with water, the plates were dried at room temperature. The cells were stained by adding 100 μl/measuring point of a 0.1% crystal violet solution (pH 3.0). After three washing cycles of the stained cells with water, the plates were dried at room temperature. The dye was dissolved by adding 100 μl/measuring point of a 10% acetic acid solution. Absorption was determined by photometry at a wavelength of 595 nm. The change of cell number, in percent, was calculated by normalization of the measured values to the absorption values of the zero-point plate (=0%) and the absorption of the untreated (0 μm) cells (=100%). The IC50 values were determined by means of a 4 parameter fit.
# [3] = TR-FRET, read-out: Biological Assay 1: Bub1 kinase assay median IC50
# [4] = Homo sapiens, HeLa, 96 h, read-out: Biological Assay 2: Proliferation assay (HeLa cell line) median IC50, HeLa cells, 4 days incubation, crystal violet staining
# [5] = Biological Assay 1: Bub1 kinase assay median IC50, TR-FRET
# [6] = Homo sapiens, HeLa, 96 h, read-out: Biological Assay 2: Proliferation assay (HeLa cell line) median IC50
# T1 sequence (O43683 704-1085): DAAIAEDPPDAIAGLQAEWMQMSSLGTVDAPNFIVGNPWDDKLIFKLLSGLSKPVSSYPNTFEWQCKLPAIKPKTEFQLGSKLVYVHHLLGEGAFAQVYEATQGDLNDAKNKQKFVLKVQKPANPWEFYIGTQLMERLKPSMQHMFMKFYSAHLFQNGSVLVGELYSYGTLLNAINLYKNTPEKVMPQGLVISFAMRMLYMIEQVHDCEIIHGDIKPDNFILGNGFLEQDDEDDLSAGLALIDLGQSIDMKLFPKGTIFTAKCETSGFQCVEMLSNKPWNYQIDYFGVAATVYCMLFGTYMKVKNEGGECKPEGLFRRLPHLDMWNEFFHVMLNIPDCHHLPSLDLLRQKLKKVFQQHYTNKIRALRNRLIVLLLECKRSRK
SMILES,"IC50 [1, 3]","IC50 [2, 6]",further results
"CCOc1cc(F)c(Cn2nc(-c3ncc(OCC[S+](C)[O-])c(Nc4ccncc4)n3)c(C)c2C2CC2)c(F)c1 (racemic) [Example 2-8-1, 2-[5-cyclopropyl-1-(4-ethoxy-2,6-difluorobenzyl)-4-methyl-1H-pyrazol-3-yl]-5-[2-(methylsulfinyl)ethoxy]-N-(pyridin-4-yl)pyrimidin-4-amine]",4.19 nM,–,"IC50 [2, 4]: 3930 nM"
"CCOc1cc(F)c(Cn2nc(-c3ncc(OCC4CCC(=O)N4)c(Nc4ccncc4)n3)c(C)c2C2CC2)c(F)c1 (single isomer, unassigned; enantiomer 1) [Example 2-3-6, 5-[({2-[5-cyclopropyl-1-(4-ethoxy-2,6-difluorobenzyl)-4-methyl-1H-pyrazol-3-yl]-4-(pyridin-4-ylamino)pyrimidin-5-yl}oxy)methyl]pyrrolidin-2-one enantiomer 1]",8.14 nM,–,"IC50 [2, 4]: 2970 nM"
"CCOc1cc(F)c(Cn2nc(-c3ncc(OCC[S+](C)[O-])c(Nc4ccncc4)n3)c(C)c2C2CC2)c(F)c1 (single isomer, unassigned; enantiomer 1) [Example 2-8-2, 2-[5-cyclopropyl-1-(4-ethoxy-2,6-difluorobenzyl)-4-methyl-1H-pyrazol-3-yl]-5-[2-(methylsulfinyl)ethoxy]-N-(pyridin-4-yl)pyrimidin-4-amine enantiomer 1]",3.96 nM,–,–
"CCOc1cc(F)c(Cn2nc(-c3ncc(OCC4CCC(=O)N4)c(Nc4ccncc4)n3)c(C)c2C2CC2)c(F)c1 (single isomer, unassigned; enantiomer 2) [Example 2-3-7, 5-[({2-[5-cyclopropyl-1-(4-ethoxy-2,6-difluorobenzyl)-4-methyl-1H-pyrazol-3-yl]-4-(pyridin-4-ylamino)pyrimidin-5-yl}oxy)methyl]pyrrolidin-2-one enantiomer 2]",12.1 nM,–,"IC50 ([2]; read-out: Biological Assay 2: Proliferation assay (HeLa cell line) median IC50, HeLa cells, 4 days incubation, crystal violet staining): 2890 nM"
"CCOc1cc(F)c(Cn2nc(-c3ncc(OCC[S+](C)[O-])c(Nc4ccncc4)n3)c(C)c2C2CC2)c(F)c1 (single isomer, unassigned; enantiomer 2) [Example 2-8-3, 2-[5-cyclopropyl-1-(4-ethoxy-2,6-difluorobenzyl)-4-methyl-1H-pyrazol-3-yl]-5-[2-(methylsulfinyl)ethoxy]-N-(pyridin-4-yl)pyrimidin-4-amine enantiomer 2]",6.17 nM,–,–
"COc1cnc(-c2cc(N(C)C)n(Cc3ccccc3F)n2)nc1Nc1ccncc1 [Example 2-1-2, 2-[5-(dimethylamino)-1-(2-fluorobenzyl)-1H-pyrazol-3-yl]-5-methoxy-N-(pyridin-4-yl)pyrimidin-4-amine]",1150 nM,> 10000 nM,–
"COc1cnc(-c2cc(OC)n(Cc3ccccc3F)n2)nc1Nc1ccncc1 [Example 2-1-3, 2-[1-(2-fluorobenzyl)-5-methoxy-1H-pyrazol-3-yl]-5-methoxy-N-(pyridin-4-yl)pyrimidin-4-amine]",381 nM,> 10000 nM,–
"CCOc1cc(-c2ncc(OC)c(Nc3ccncc3)n2)nn1Cc1ccccc1F [Example 2-1-4, 2-[5-ethoxy-1-(2-fluorobenzyl)-1H-pyrazol-3-yl]-5-methoxy-N-(pyridin-4-yl)pyrimidin-4-amine]",638 nM,> 10000 nM,–
"COc1cnc(-c2cc(C3CC3)n(Cc3ccccc3)n2)nc1Nc1ccncc1 [Example 2-1-5, 2-(1-benzyl-5-cyclopropyl-1H-pyrazol-3-yl)-5-methoxy-N-(pyridin-4-yl)pyrimidin-4-amine]",516 nM,> 10000 nM,–
"C=Cc1cc(-c2ncc(OC)c(Nc3ccncc3)n2)nn1Cc1ccccc1 [Example 2-1-6, 2-(1-benzyl-5-ethenyl-1H-pyrazol-3-yl)-5-methoxy-N-(pyridin-4-yl)pyrimidin-4-amine]",517 nM,> 10000 nM,–
"COc1cnc(-c2cc(OC)n(Cc3ccccc3F)n2)nc1Nc1ccncc1C#N [Example 2-1-7, 4-({2-[1-(2-fluorobenzyl)-5-methoxy-1H-pyrazol-3-yl]-5-methoxypyrimidin-4-yl}amino)pyridine-3-carbonitrile]",1420 nM,> 10000 nM,–
"COc1ccc(Cn2nc(-c3ncc(OC)c(Nc4ccncc4)n3)cc2C2CC2)cc1 [Example 2-1-8, 2-[5-cyclopropyl-1-(4-methoxybenzyl)-1H-pyrazol-3-yl]-5-methoxy-N-(pyridin-4-yl)pyrimidin-4-amine]",73.8 nM,> 10000 nM,–
"COc1cnc(-c2nn(Cc3c(Cl)cccc3Cl)c(C3CC3)c2C)nc1Nc1ccncc1 [Example 2-1-9, 2-[5-cyclopropyl-1-(2,6-dichlorobenzyl)-4-methyl-1H-pyrazol-3-yl]-5-methoxy-N-(pyridin-4-yl)pyrimidin-4-amine]",5.76 nM,> 10000 nM,–
"COc1cnc(-c2nn(Cc3ccccc3F)c(C3CC3)c2C)nc1Nc1ccncc1 [Example 2-1-10, 2-[5-cyclopropyl-1-(2-fluorobenzyl)-4-methyl-1H-pyrazol-3-yl]-5-methoxy-N-(pyridin-4-yl)pyrimidin-4-amine]",36.5 nM,3490 nM,–
"COc1cnc(-c2nn(Cc3c(Cl)cccc3Cl)c(OC)c2C)nc1Nc1ccncc1 [Example 2-1-11, 2-[1-(2,6-dichlorobenzyl)-5-methoxy-4-methyl-1H-pyrazol-3-yl]-5-methoxy-N-(pyridin-4-yl)pyrimidin-4-amine]",7.86 nM,2740 nM,–
"CCOc1cc(F)c(Cn2nc(-c3ncc(O)c(Nc4ccncc4)n3)c(C)c2C2CC2)c(F)c1 [Example 2-2-1, 2-[5-cyclopropyl-1-(4-ethoxy-2,6-difluorobenzyl)-4-methyl-1H-pyrazol-3-yl]-4-(pyridin-4-ylamino)pyrimidin-5-ol]",–,–,"IC50 [1, 5]: 6.2 nM"
"COc1ccc(Cn2nc(-c3ncc(OC)c(Nc4ccncc4)n3)c(C)c2C2CC2)cc1 [Example 2-6-1, 2-[5-cyclopropyl-1-(4-methoxybenzyl)-4-methyl-1H-pyrazol-3-yl]-5-methoxy-N-(pyridin-4-yl)pyrimidin-4-amine]",15.1 nM,–,–
"CCOc1cc(F)c(Cn2nc(-c3ncc(OC)c(Nc4ccncc4)n3)c(C)c2N(C)C)c(F)c1 [Example 2-6-2, 2-[5-(dimethylamino)-1-(4-ethoxy-2,6-difluorobenzyl)-4-methyl-1H-pyrazol-3-yl]-5-methoxy-N-(pyridin-4-yl)pyrimidin-4-amine]",–,–,"IC50 [1, 5]: 12.6 nM"
"CCOc1cc(F)c(Cn2nc(-c3ncc(OC)c(Nc4ccncc4C#N)n3)c(C)c2C2CC2)c(F)c1 [Example 2-6-4, 4-({2-[5-cyclopropyl-1-(4-ethoxy-2,6-difluorobenzyl)-4-methyl-1H-pyrazol-3-yl]-5-methoxypyrimidin-4-yl}amino)nicotinonitrile]",–,–,"IC50 [1, 5]: 48.6 nM"
"CCOC(=O)c1cnccc1Nc1nc(-c2nn(Cc3c(F)cc(OCC)cc3F)c(C3CC3)c2C)ncc1OC [Example 2-6-5, ethyl 4-({2-[5-cyclopropyl-1-(4-ethoxy-2,6-difluorobenzyl)-4-methyl-1H-pyrazol-3-yl]-5-methoxypyrimidin-4-yl}amino)nicotinate]",–,–,"IC50 [1, 5]: 27.4 nM"
"CCOc1cc(F)c(Cn2nc(-c3ncc(OC)c(Nc4ccncc4C(=O)O)n3)c(C)c2C2CC2)c(F)c1 [Example 2-11-1, 4-({2-[5-cyclopropyl-1-(4-ethoxy-2,6-difluorobenzyl)-4-methyl-1H-pyrazol-3-yl]-5-methoxypyrimidin-4-yl}amino)nicotinic acid]",–,–,"IC50 [1, 5]: 26.8 nM"

# More lines, main results first:
"IC50 [1, 3]","IC50 [2, 6]",SMILES,further results
–,7380 nM,"CCOc1cc(F)c(Cn2nc(-c3ncc(OC)c(Nc4ccncc4)n3)c(C)c2OC)c(F)c1 [Example 2-1-1, 2-[1-(4-ethoxy-2,6-difluorobenzyl)-5-methoxy-4-methyl-1H-pyrazol-3-yl]-5-methoxy-N-(pyridin-4-yl)pyrimidin-4-amine]","IC50 [1, 5]: 6.14 nM"
–,9350 nM,"CCOc1cc(F)c(Cn2nc(-c3ncc(C#N)c(Nc4ccncc4)n3)c(C)c2C2CC2)c(F)c1 [Example 2-6-3, 2-[5-cyclopropyl-1-(4-ethoxy-2,6-difluorobenzyl)-4-methyl-1H-pyrazol-3-yl]-4-(pyridin-4-ylamino)pyrimidine-5-carbonitrile]",–
8.62 nM,–,"COc1cnc(-c2nn(Cc3c(F)cc(C4CC4)cc3F)c(C3CC3)c2C)nc1Nc1ccncc1 [Example 2-7-1, 2-[5-cyclopropyl-1-(4-cyclopropyl-2,6-difluorobenzyl)-4-methyl-1H-pyrazol-3-yl]-5-methoxy-N-(pyridin-4-yl)pyrimidin-4-amine]",–
6.79 nM,–,"COc1cnc(-c2nn(Cc3c(F)cc(OC(F)F)cc3F)c(C3CC3)c2C)nc1Nc1ccncc1 [Example 2-10-1, 2-{5-cyclopropyl-1-[4-(difluoromethoxy)-2,6-difluorobenzyl]-4-methyl-1H-pyrazol-3-yl}-5-methoxy-N-(pyridin-4-yl)pyrimidin-4-amine]",–
